One data set concerns patients. The note with it: patients (total number 80) before treatment with Naltrexone.
Data set [1] deals with Oncologic patients receiving therapy with morphine orally. Nature of the data set: Clinical study: naltrexone in oncologic patients receiving therapy with morphine orally. To be noted: individual patient, ½ hour before oral morphine (average 40 mg +/- 10 mg). Format: in vivo.
The test system of data set [2] is Spine patients undergoing therapy with morphine by the spinal route. Nature of the data set: Clinical study: naltrexone in spine patients undergoing therapy with morphine by the spinal route. Format: in vivo. The note with it: individual patient, ½ hour before epidural load, spinal morphine (average 4.8 mg +/- 0.4 mg).
The mark [3] stands for this setting: naltrexone 0.125 mcg every 12 hours.
Setting [4] is: naltrexone 2.5 mcg every 12 hours.
Setting [5] is: naltrexone 5 mcg every 12 hours.
Setting [6] is: naltrexone 1 mcg every 12 hours.

Values joined by “and” are separate entries in the source; they are usually repeats but may differ in a detail not shown here. Equal entries are not always repeated.

For the molecule `CN1CC[C@]23c4c5ccc(O)c4O[C@H]2[C@@H](O)C=C[C@H]3[C@H]1C5` [morphine], in the data set on patients, the “Incidence of adverse effects from morphine: Asthenia” value was 43.3%, the “Incidence of adverse effects from morphine: Constipation” value is reported as 70%, the “Incidence of adverse effects from morphine: Dizziness” value stood at 13.3% and the “Incidence of adverse effects from morphine: Drowsiness” value came to 30%. Also, in the data set on patients, the “Incidence of adverse effects from morphine: Headache” value is on record as 6.7%, the “Incidence of adverse effects from morphine: Inappetence” value came to 46.7%, the “Incidence of adverse effects from morphine: Nausea” value was 53.3% and the “Incidence of adverse effects from morphine: Pruritus” value came to 30%. The “Incidence of adverse effects from morphine: Vomiting” value in the data set with patients stood at 53.3%.

As to `O=C1CC[C@@]2(O)[C@H]3Cc4ccc(O)c5c4[C@@]2(CCN3CC2CC2)[C@H]1O5` [Naltrexone, naltrexone], the “Analgesia (%): analgesic efficacy after administration of naltrexone” value is 100% (8×) and 90% (2×) and 65% (2×) and 60% (2×) and 70% (3×) and 65%** (3×) and 55% and 75%** and 70%** and 85% (2×) and 45%** and 45% in data set [1] (naltrexone 1 mg every 12 hours); 45% (2×) and 55%** and 65%** and 60% in data set [1] (setting [3]); 60% in data set [1] (naltrexone 0.125 mcg/day); 0% and 45% (7×) and 55% (2×) and 60%** and 100% (2×) and 70% and 60% (3×) and 40% in data set [1] (setting [4]); 60% in data set [1] (naltrexone 2.5 mcg/day); 45% (2×) and 55% (5×) and 70% and 100% (3×) and 90% (3×) and 60% (3×) and 65% and 60%** (2×) and 65%** and 55%** and 70%** in data set [1] (setting [5]). The “Analgesia (%): analgesic efficacy after administration of naltrexone” value was 95% and 60% and 65% in data set [2] (naltrexone 1 mg every 12 hours); 65% and 45% (2×) in data set [2] (setting [6]); 45% (2×) and 75% and 60% and 55% (2×) and 90% and 0% and 100% (3×) and 85% in data set [2] (setting [4]); 45% and 100% and 60% (3×) and 35% and 85% and 15% in data set [2] (setting [5]). The “Benefit (%): percentage reduction of adverse effects” value is 90% (3×) and 65% (8×) and 40% (2×) and 70% (4×) and 100% (3×) and 75% and 95% and 0% and 55% and 50% and 80% (2×) in data set [1] (naltrexone 1 mg every 12 hours); 65% (3×) and 40% and 100% in data set [1] (setting [3]); 100% in data set [1] (naltrexone 0.125 mcg/day); 100% and 80% (5×) and 70% and 50% (3×) and 65% (2×) and 40% and 60% (2×) and 25% and 55% and 90% in data set [1] (setting [4]); 90% in data set [1] (naltrexone 2.5 mcg/day); 60% (4×) and 0% and 70% and 50% (3×) and 45% (4×) and 85% (2×) and 55% (2×) and 35% and 40% (2×) and 65% and 100% (2×) in data set [1] (setting [5]). In addition, the “Benefit (%): percentage reduction of adverse effects” value is 65% (2×) and 50% in data set [2] (naltrexone 1 mg every 12 hours); 65% and 70% and 100% in data set [2] (setting [6]); 45% (2×) and 80% (4×) and 60% (3×) and 100% (2×) and 95% in data set [2] (setting [4]); 70% (2×) and 95% and 50% (3×) and 65% and 30% in data set [2] (setting [5]).

These data come from patent publication US20130059876A1, “LIQUID NASAL SPRAY CONTAINING LOW-DOSE NALTREXONE” (L Molteni & C Dei Fratelli Alitti Societa Di Esercizio S.p.A, priority 2010, published 2013).
